Source: PubChem BioAssay AID180 (DTP/NCI, 2004)
Several values for one entry are separate records, joined by “and”; a condition that tells them apart may be missing. Equal entries are not always repeated.

System: BDF1 mice, Adenocarcinoma 755 s.c., tumor weight T/C
Experiment: NCI In Vivo Anticancer Drug Screen. Data for tumor model Adenocarcinoma 755 (subcutaneous) in B6D2F1 (BDF1) mice
Conditions: endpoint: mean tumor weight, higher = larger tumour
How it was run: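 Transplantable tumor implanted; mice dosed with compound or vehicle; survival or tumor size recorded; ratio of treated to vehicle control reported.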

[1] = dose: 1.0 mg/kg/injection, schedule: Q01DX011 (ip), vehicle: methylcellulose (MC)
[2] = dose: 6.25 mg/kg/injection, schedule: Q01DX011 (ip), vehicle: methylcellulose (MC)
[3] = dose: 19.0 mg/kg/injection, schedule: Q01DX011 (ip), vehicle: carboxymethylcellulose (CMC)

Cn1cnc([N+](=O)[O-])c1Sc1nc(N)nc2nc[nH]c12
T/C (dose: 0.04 mg/kg/injection, schedule: Q01DX011 (ip), vehicle: alkali diluted with saline): 76 % of control
T/C (dose: 0.07 mg/kg/injection, schedule: Q01DX011 (ip), vehicle: methylcellulose (MC)): 84 % of control
T/C (dose: 0.08 mg/kg/injection, schedule: Q01DX011 (ip), vehicle: alkali diluted with saline): 72 % of control
T/C (dose: 0.13 mg/kg/injection, schedule: Q01DX011 (ip), vehicle: methylcellulose (MC)): 86 % of control
T/C (dose: 0.16 mg/kg/injection, schedule: Q01DX011 (ip), vehicle: alkali diluted with saline): 102 % of control
T/C (dose: 0.2 mg/kg/injection, schedule: Q01DX011 (ip), vehicle: methylcellulose (MC)): 30 % of control
T/C (dose: 0.25 mg/kg/injection, schedule: Q01DX011 (ip), vehicle: distilled water + alcohol): 29 % of control
T/C (dose: 0.25 mg/kg/injection, schedule: Q01DX011 (ip), vehicle: methylcellulose (MC)): 65 % of control
T/C (dose: 0.32 mg/kg/injection, schedule: Q01DX011 (ip), vehicle: alkali diluted with saline): 82 % of control
T/C (dose: 0.32 mg/kg/injection, schedule: Q01DX011 (ip), vehicle: saline): 102 % of control
T/C (dose: 0.39 mg/kg/injection, schedule: Q01DX011 (ip), vehicle: methylcellulose (MC)): 8 % of control
T/C (dose: 0.52 mg/kg/injection, schedule: Q01DX011 (ip), vehicle: distilled water + alcohol): 18 % of control
T/C (dose: 0.62 mg/kg/injection, schedule: Q01DX011 (oral), vehicle: saline): 89 % of control
T/C (dose: 0.63 mg/kg/injection, schedule: Q01DX011 (ip), vehicle: alkali diluted with saline): 41 % of control
T/C (dose: 0.63 mg/kg/injection, schedule: Q01DX011 (ip), vehicle: saline): 46 % of control
T/C (dose: 0.78 mg/kg/injection, schedule: Q01DX011 (ip), vehicle: methylcellulose (MC)): 7 % of control
T/C [1]: 27 % of control
T/C (dose: 1.05 mg/kg/injection, schedule: Q01DX011 (ip), vehicle: distilled water + alcohol): 5 % of control
T/C (dose: 1.25 mg/kg/injection, schedule: Q01DX011 (ip), vehicle: alkali diluted with saline): 2 % of control
T/C (dose: 1.25 mg/kg/injection, schedule: Q01DX011 (ip), vehicle: saline): 4 % of control
T/C (dose: 1.25 mg/kg/injection, schedule: Q01DX011 (oral), vehicle: saline): 36 % of control
T/C (dose: 1.56 mg/kg/injection, schedule: Q01DX011 (ip), vehicle: methylcellulose (MC)): 5 % of control
T/C (dose: 2.08 mg/kg/injection, schedule: Q01DX011 (ip), vehicle: distilled water + alcohol): 6 % of control
T/C (dose: 2.5 mg/kg/injection, schedule: Q01DX011 (ip), vehicle: alkali diluted with saline): 1 % of control
T/C (dose: 2.5 mg/kg/injection, schedule: Q01DX011 (ip), vehicle: methylcellulose (MC)): 4 % of control
T/C (dose: 2.5 mg/kg/injection, schedule: Q01DX011 (ip), vehicle: saline): 3 % of control
T/C (dose: 2.5 mg/kg/injection, schedule: Q01DX011 (oral), vehicle: saline): 8 % of control
T/C (dose: 3.12 mg/kg/injection, schedule: Q01DX011 (ip), vehicle: methylcellulose (MC)): 2 % of control
T/C (dose: 4.19 mg/kg/injection, schedule: Q01DX011 (ip), vehicle: distilled water + alcohol): 2 % of control
T/C (dose: 5.0 mg/kg/injection, schedule: Q01DX011 (ip), vehicle: saline): 1 % of control
T/C (dose: 5.0 mg/kg/injection, schedule: Q01DX011 (oral), vehicle: saline): 5 % of control
T/C [2]: 2 % of control
T/C (dose: 10.0 mg/kg/injection, schedule: Q01DX011 (ip), vehicle: saline): 1 % of control
T/C (dose: 12.5 mg/kg/injection, schedule: Q01DX011 (ip), vehicle: methylcellulose (MC)): 1 % of control

Cc1c2ccccc2c(C)c2c1ccc1ccccc12
T/C (dose: 9.0 mg/kg/injection, schedule: Q01DX011 (ip), vehicle: carboxymethylcellulose (CMC)): 63 % of control
T/C [3]: 54 % of control
T/C (dose: 38.0 mg/kg/injection, schedule: Q01DX011 (ip), vehicle: carboxymethylcellulose (CMC)): 51 % of control

CCOC(=O)CCCc1ccc(N=NN(C)C(C)CC)cc1 (centres undefined)
T/C (dose: 62.0 mg/kg/injection, schedule: Q01DX011 (ip), vehicle: carboxymethylcellulose (CMC)): 64 % of control
T/C (dose: 125.0 mg/kg/injection, schedule: Q01DX011 (ip), vehicle: carboxymethylcellulose (CMC)): 71 % of control
T/C (dose: 250.0 mg/kg/injection, schedule: Q01DX011 (ip), vehicle: carboxymethylcellulose (CMC)): 14 % of control

CC(C)CNS(=O)(=O)c1ncnc2nc[nH]c12
T/C (dose: 6.0 mg/kg/injection, schedule: Q01DX011 (ip), vehicle: carboxymethylcellulose (CMC)): 62 % of control
T/C (dose: 6.0 mg/kg/injection, schedule: Q01DX011 (ip), vehicle: other): 81 % of control
T/C (dose: 12.0 mg/kg/injection, schedule: Q01DX011 (ip), vehicle: other): 96 % of control
T/C (dose: 12.5 mg/kg/injection, schedule: Q01DX011 (ip), vehicle: carboxymethylcellulose (CMC)): 24 % of control
T/C [3]: 12 % of control
T/C (dose: 25.0 mg/kg/injection, schedule: Q01DX011 (ip), vehicle: carboxymethylcellulose (CMC)): 8 % of control
T/C (dose: 25.0 mg/kg/injection, schedule: Q01DX011 (ip), vehicle: other): 34 % of control
T/C (dose: 50.0 mg/kg/injection, schedule: Q01DX011 (ip), vehicle: other): 6 % of control
T/C (dose: 75.0 mg/kg/injection, schedule: Q01DX011 (ip), vehicle: carboxymethylcellulose (CMC)): 2 % of control
T/C (dose: 100.0 mg/kg/injection, schedule: Q01DX011 (ip), vehicle: other): 10 % of control

NC(Cc1ccc(N(CCCl)CCCl)cc1)C(=O)O (centres undefined)
T/C (dose: 0.32 mg/kg/injection, schedule: Q01DX011 (ip), vehicle: carboxymethylcellulose (CMC)): 58 % of control
T/C (dose: 0.62 mg/kg/injection, schedule: Q01DX011 (ip), vehicle: carboxymethylcellulose (CMC)): 87 % of control and 66 % of control
T/C (dose: 0.64 mg/kg/injection, schedule: Q01DX011 (ip), vehicle: carboxymethylcellulose (CMC)): 32 % of control
T/C (dose: 0.83 mg/kg/injection, schedule: Q01DX011 (ip), vehicle: carboxymethylcellulose (CMC)): 46 % of control
T/C [1]: 82 % of control
T/C (dose: 1.28 mg/kg/injection, schedule: Q01DX011 (ip), vehicle: carboxymethylcellulose (CMC)): 23 % of control
T/C (dose: 1.38 mg/kg/injection, schedule: Q01DX011 (ip), vehicle: carboxymethylcellulose (CMC)): 20 % of control
T/C (dose: 1.5 mg/kg/injection, schedule: Q01DX011 (ip), vehicle: methylcellulose (MC)): 26 % of control
T/C (dose: 1.67 mg/kg/injection, schedule: Q01DX011 (ip), vehicle: carboxymethylcellulose (CMC)): 39 % of control
T/C (dose: 1.73 mg/kg/injection, schedule: Q01DX011 (ip), vehicle: carboxymethylcellulose (CMC)): 19 % of control
T/C (dose: 2.0 mg/kg/injection, schedule: Q01DX011 (ip), vehicle: methylcellulose (MC)): 30 % of control
T/C (dose: 2.3 mg/kg/injection, schedule: Q01DX011 (ip), vehicle: carboxymethylcellulose (CMC)): 23 % of control
T/C (dose: 2.56 mg/kg/injection, schedule: Q01DX011 (ip), vehicle: carboxymethylcellulose (CMC)): 9 % of control
T/C (dose: 3.0 mg/kg/injection, schedule: Q01DX011 (ip), vehicle: methylcellulose (MC)): 14 % of control
T/C (dose: 3.35 mg/kg/injection, schedule: Q01DX011 (ip), vehicle: carboxymethylcellulose (CMC)): 9 % of control
T/C (dose: 3.45 mg/kg/injection, schedule: Q01DX011 (ip), vehicle: carboxymethylcellulose (CMC)): 12 % of control
T/C (dose: 4.0 mg/kg/injection, schedule: Q01DX011 (ip), vehicle: methylcellulose (MC)): 12 % of control
T/C (dose: 5.0 mg/kg/injection, schedule: Q01DX011 (ip), vehicle: carboxymethylcellulose (CMC)): 11 % of control and 30 % of control
T/C (dose: 6.0 mg/kg/injection, schedule: Q01DX011 (ip), vehicle: methylcellulose (MC)): 5 % of control
T/C [2]: 5 % of control
T/C (dose: 6.7 mg/kg/injection, schedule: Q01DX011 (ip), vehicle: carboxymethylcellulose (CMC)): 4 % of control
T/C (dose: 6.9 mg/kg/injection, schedule: Q01DX011 (ip), vehicle: carboxymethylcellulose (CMC)): 8 % of control
T/C (dose: 8.0 mg/kg/injection, schedule: Q01DX011 (ip), vehicle: methylcellulose (MC)): 6 % of control
T/C (dose: 10.0 mg/kg/injection, schedule: Q01DX011 (ip), vehicle: carboxymethylcellulose (CMC)): 4 % of control
